Reference: patent US12048725B2, “Methods for promoting intestinal health and for enhancing antioxidation using prebiotic composition” (TCI CO., LTD., priority 2022, dated 2024)

System: Akkermansia muciniphila
Assay: Effects of prebiotic compositions with different components on growth of Akkermansia muciniphila (Example 2)
Assay type: cell-based
Text: The xylooligosaccharide used was purchased from Shandong Longlive Bio-Technology Co., Ltd. The lactitol used was purchased from Welltech Biotechnology Co., Ltd. The inulin used was purchased from Cosucra. The fructooligosaccharide used was purchased from Meiji. The grape ferment used was the grape ferment prepared in Example 1. The liquid medium used was tryptone soy broth (TSB; hereinafter referred to as TSB medium) with 5% sheep blood (purchased from BD).
The groups were divided into blank group, 5 experimental groups (experimental groups A-E) and 5 control groups (control groups A-E), as shown in Table 1.
The experimental medium used in control groups A-E included 94% TSB medium, 5% sheep blood and 1% single-component prebiotic compositions A-E, respectively; and the single-component prebiotic compositions A-E were xylooligosaccharide, lactitol, inulin, fructooligosaccharide and grape ferment, respectively. […]
1% activated Akkermansia muciniphila was respectively added to a 15 mL test tube containing 5 mL of medium of each group, and subjected to anaerobic culture at 37° C. for 48 hours. After 48 hours of culture, 100 μL of bacterial suspension was respectively taken from the test tube of each group, added to the solid TSB medium containing 5% sheep blood, and subjected to anaerobic culture at 37° C. for 72 hours, and then, the bacterial count of each group was calculated. […]

Q: With `OC[C@@H](O)[C@@H](O[C@@H]1O[C@H](CO)[C@H](O)[C@H](O)[C@H]1O)[C@H](O)[C@@H](O)CO` [control group B, lactitol] as the compound, how does the bacterial count (1% prebiotic composition in 94% TSB medium + 5% sheep blood, anaerobic culture at 37° C. for 48 hours, then plated 72 hours, blank group 6.50 log CFU) read?
A: Its bacterial count is 6.67 log CFU.

Q: And the “effect on bacterial count/growth of Akkermansia muciniphila as compared with the blank group” value (1% prebiotic composition in medium, FIG. 1)?
A: The value was “increased the bacterial count of Akkermansia muciniphila”.
